In paper PMC6304311 (Influenza and Other Respiratory Viruses, 2018):
Read-outs that look alike come from different tables or passages of the source.

Legend:
[1] = system: NA from influenza A(H1N1)pdm09 virus isolates; conditions: cited from earlier work; for IC50: read-out: IC50, susceptible reference strain
[2] = target: T1, NA from influenza A(H3N2) virus isolates (Influenza A virus, UniProt V5P6L4); type: biochemical
[3] = target: NA from influenza B virus isolates (Influenza B virus, UniProt A0A1S5RAG6); type: biochemical
[4] = target: NA from influenza A(H1N1)pdm09 virus isolates (Influenza A virus, UniProt C7FH46); type: biochemical
[5] = target: T2, NA from influenza A(H1N1) virus isolates (Influenza A virus, UniProt C0LLZ0); conditions: cited from earlier work
[6] = target: T1, NA from influenza A(H3N2) virus isolates; conditions: cited from earlier work
[7] = target: T2, NA from influenza A(H1N1) virus isolates; type: biochemical
[8] = read-out: IC50, susceptible reference strain

Row | Compound | IC50 [1] | Susceptible [2] | IC50 ([2]; read-out: IC50 Median (range)) | IC50 ([2]; read-out: IC50 Statistical cutoff (X 0.75 + 3IQR)) | IC50 ([2]; read-out: IC50 X 0.75 (75th percentile)) | Susceptible [3] | Susceptible [4] | IC50 [5, 8] | IC50 [6, 8] | Susceptible [7] | outlier virus isolates [7] | share of virus isolates with markedly increased IC50 [7] | susceptibility phenotype of reference virus [1] | susceptibility phenotype of reference virus [5] | susceptibility phenotype of reference virus [6]
1 | CCOC(=O)C1=C[C@@H](OC(CC)CC)[C@H](NC(C)=O)[C@@H](N)C1 [oseltamivir] | 0.1 nM | susceptible and Yes | 0.05 nM | 0.15 nM | 0.06 nM | susceptible and Yes | susceptible and Yes | 0.13 nM | 0.21 nM | susceptible and Yes and No | 2/4 | 97.9% | – | – | –
2 | CC(=O)N[C@H]1[C@H]([C@H](O)[C@H](O)CO)OC(C(=O)O)=C[C@@H]1N=C(N)N [zanamivir] | 0.42 nM | susceptible and Yes | – | – | – | – | susceptible and Yes | – | – | susceptible and Yes | 3/4 | – | susceptible | susceptible | susceptible
